B1: human EXT1 (exostosin-1), N-terminally truncated, aa29-aa746 (enzyme, UniProt Q16394 29-746, looked up)
chain: RASRSHSRREEHSGRNGLHHPSPDHFWPRFPDALRPFVPWDQLENEDSSVHISPRQKRDANSSIYKGKKCRMESCFDFTLCKKNGFKVYVYPQQKGEKIAESYQNILAAIEGSRFYTSDPSQACLFVLSLDTLDRDQLSPQYVHNLRSKVQSLHLWNNGRNHLIFNLYSGTWPDYTEDVGFDIGQAMLAKASISTENFRPNFDVSIPLFSKDHPRTGGERGFLKFNTIPPLRKYMLVFKGKRYLTGIGSDTRNALYHVHNGEDVVLLTTCKHGKDWQKHKDSRCDRDNTEYEKYDYREMLHNATFCLVPRGRRLGSFRFLEALQAACVPVMLSNGWELPFSEVINWNQAAVIGDERLLLQIPSTIRSIHQDKILALRQQTQFLWEAYFSSVEKIVLTTLEIIQDRIFKHISRNSLIWNKHPGGLFVLPQYSSYLGDFPYYYANLGLKPPSKFTAVIHAVTPLVSQSQPVLKLLVAAAKSQYCAQIIVLWNCDKPLPAKHRWPATAVPVVVIEGESKVMSSRFLPYDNIITDAVLSLDEDTVLSTTEVDFAFTVWQSFPERIVGYPARSHFWDNSKERWGYTSKWTNDYSMVLTGAAIYHKYYHYLYSHYLPASLKNMVDQLANCEDILMNFLVSAVTKLPPIKVTQKKQYKETMMGQTSRASRWADPDHFAQRQSCMNTFASWFGYMPLIHSQMRLDPVLFKDQVSILRKKYRDIERL
modifications: N-linked glycan at Asn330
notes: exostosin-1 (EXT1), human, residues 29-746, lacking the N-terminal transmembrane helix; Only obtained by co-expression with EXT2; Model built for aa89-aa728 with some loops missing; also called EXT1 WT; not shown: secreted alkaline phosphatase, N-terminal, cleaved; 8x His, C-terminal, kept
B2: human EXT2 (exostosin-2), N-terminally truncated, aa47-aa718 (enzyme, UniProt Q93063 47-718, looked up)
chain: PHSIESSNDWNVEKRSIRDVPVVRLPADSPIPERGDLSCRMHTCFDVYRCGFNPKNKIKVYIYALKKYVDDFGVSVSNTISREYNELLMAISDSDYYTDDINRACLFVPSIDVLNQNTLRIKETAQAMAQLSRWDRGTNHLLFNMLPGGPPDYNTALDVPRDRALLAGGGFSTWTYRQGYDVSIPVYSPLSAEVDLPEKGPGPRQYFLLSSQVGLHPEYREDLEALQVKHGESVLVLDKCTNLSEGVLSVRKRCHKHQVFDYPQVLQEATFCVVLRGARLGQAVLSDVLQAGCVPVVIADSYILPFSEVLDWKRASVVVPEEKMSDVYSILQSIPQRQIEEMQRQARWFWEAYFQSIKAIALATLQIINDRIYPYAAISYEEWNDPPAVKWGSVSNPLFLPLIPPQSQGFTAIVLTYDRVESLFRVITEVSKVPSLSKLLVVWNNQNKNPPEDSLWPKIRVPLKVVRTAENKLSNRFFPYDEIETEAVLAIDDDIIMLTSDELQFGYEVWREFPDRLVGYPGRLHLWDHEMNKWKYESEWTNEVSMVLTGAAFYHKYFNYLYTYKMPGDIKNWVDAHMNCEDIAMNFLVANVTGKAVIKVTPRKKFKCPECTAIDGLSLDQTHMVERSECINKFASVFGTMPLKVVEHRADPVLYKDDFPEKLKSFPNIGSL
modifications: N-linked glycan at Asn637
notes: exostosin-2 (EXT2), human, residues 47-718, lacking the N-terminal transmembrane helix; Only obtained by co-expression with EXT1; Model built for aa78-aa702 with some loops missing; also called EXT2 WT; not shown: secreted alkaline phosphatase, N-terminal, cleaved; 8x His, C-terminal, kept

Experiments:
[1] = molecular target: T1, EXT1-EXT2 complex (GlcNAc-T sites of EXT1 and EXT2) (Homo sapiens, UniProt Q16394+Q93063); assay: FACE glycosyl transfer assay; type: biochemical; details: acceptor Alexa Fluor 430-labelled dp8 5 uM; 1 mM UDP-GlcNAc; 10 mM MnCl2; pH 7.2; 30 C; GlcNAc-T domains of EXT1 and EXT2
T1 construct: same complex as P1; separate entry only because each chain has its own GlcNAc-T site; 1:1 heterodimer (EXT1 aa29-746, EXT2 aa47-718), C-terminal 8xHis kept, alkaline phosphatase fusion cut off with TEV; FreeStyle 293-F
T1 sequence (Q16394 29-746): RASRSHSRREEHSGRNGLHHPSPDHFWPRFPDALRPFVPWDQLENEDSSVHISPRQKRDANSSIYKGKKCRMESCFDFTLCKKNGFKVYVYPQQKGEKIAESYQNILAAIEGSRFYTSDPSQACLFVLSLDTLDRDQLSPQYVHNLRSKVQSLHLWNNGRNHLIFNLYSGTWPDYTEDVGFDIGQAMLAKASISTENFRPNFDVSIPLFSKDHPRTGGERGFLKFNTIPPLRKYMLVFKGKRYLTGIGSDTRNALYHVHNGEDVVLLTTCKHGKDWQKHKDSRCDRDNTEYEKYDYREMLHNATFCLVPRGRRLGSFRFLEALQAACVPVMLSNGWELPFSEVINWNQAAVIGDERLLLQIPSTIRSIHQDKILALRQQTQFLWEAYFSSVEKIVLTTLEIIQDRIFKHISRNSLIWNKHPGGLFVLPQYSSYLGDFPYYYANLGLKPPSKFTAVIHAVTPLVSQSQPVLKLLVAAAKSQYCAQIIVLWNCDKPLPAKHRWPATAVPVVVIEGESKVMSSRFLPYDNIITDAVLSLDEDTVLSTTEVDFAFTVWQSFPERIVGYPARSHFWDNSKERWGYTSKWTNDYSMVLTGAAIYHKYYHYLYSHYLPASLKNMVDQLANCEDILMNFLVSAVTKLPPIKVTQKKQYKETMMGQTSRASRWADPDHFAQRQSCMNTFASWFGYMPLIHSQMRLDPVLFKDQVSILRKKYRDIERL
T1 sequence (Q93063 47-718): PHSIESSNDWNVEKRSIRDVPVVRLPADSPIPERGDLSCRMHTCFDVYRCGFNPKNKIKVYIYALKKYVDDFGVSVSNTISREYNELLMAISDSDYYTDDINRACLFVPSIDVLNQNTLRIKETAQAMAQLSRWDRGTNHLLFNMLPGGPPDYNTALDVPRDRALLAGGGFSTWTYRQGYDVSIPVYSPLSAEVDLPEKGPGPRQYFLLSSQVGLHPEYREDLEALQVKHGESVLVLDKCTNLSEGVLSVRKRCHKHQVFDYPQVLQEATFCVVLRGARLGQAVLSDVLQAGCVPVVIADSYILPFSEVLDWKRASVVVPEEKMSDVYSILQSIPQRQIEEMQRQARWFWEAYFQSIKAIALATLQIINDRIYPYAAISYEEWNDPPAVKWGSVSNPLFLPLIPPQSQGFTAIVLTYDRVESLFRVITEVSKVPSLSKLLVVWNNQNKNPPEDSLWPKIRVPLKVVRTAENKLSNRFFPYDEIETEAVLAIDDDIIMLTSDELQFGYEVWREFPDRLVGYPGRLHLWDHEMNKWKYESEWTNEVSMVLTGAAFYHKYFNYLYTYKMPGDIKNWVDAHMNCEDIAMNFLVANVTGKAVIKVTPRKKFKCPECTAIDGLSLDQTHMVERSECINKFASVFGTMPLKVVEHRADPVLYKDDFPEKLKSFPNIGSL

[2] = molecular target: T2, EXT1-EXT2 complex (EXT1 GlcA-T site) (Homo sapiens, UniProt Q16394); assay: FACE glycosyl transfer assay; type: biochemical; details: acceptor Alexa Fluor 430-labelled dp9 5 uM; 1 mM UDP-GlcA; 10 mM MnCl2; pH 7.2; 30 C; EXT1 GlcA-T domain
T2 construct: 1:1 heterodimer of Golgi-luminal parts, transmembrane helix removed (EXT1 aa29-746, EXT2 aa47-718), C-terminal 8xHis kept, secreted alkaline phosphatase fusion cut off with TEV; co-expressed in FreeStyle 293-F; about 160 kDa; with Exostosin-2
T2 sequence (Q16394 29-746): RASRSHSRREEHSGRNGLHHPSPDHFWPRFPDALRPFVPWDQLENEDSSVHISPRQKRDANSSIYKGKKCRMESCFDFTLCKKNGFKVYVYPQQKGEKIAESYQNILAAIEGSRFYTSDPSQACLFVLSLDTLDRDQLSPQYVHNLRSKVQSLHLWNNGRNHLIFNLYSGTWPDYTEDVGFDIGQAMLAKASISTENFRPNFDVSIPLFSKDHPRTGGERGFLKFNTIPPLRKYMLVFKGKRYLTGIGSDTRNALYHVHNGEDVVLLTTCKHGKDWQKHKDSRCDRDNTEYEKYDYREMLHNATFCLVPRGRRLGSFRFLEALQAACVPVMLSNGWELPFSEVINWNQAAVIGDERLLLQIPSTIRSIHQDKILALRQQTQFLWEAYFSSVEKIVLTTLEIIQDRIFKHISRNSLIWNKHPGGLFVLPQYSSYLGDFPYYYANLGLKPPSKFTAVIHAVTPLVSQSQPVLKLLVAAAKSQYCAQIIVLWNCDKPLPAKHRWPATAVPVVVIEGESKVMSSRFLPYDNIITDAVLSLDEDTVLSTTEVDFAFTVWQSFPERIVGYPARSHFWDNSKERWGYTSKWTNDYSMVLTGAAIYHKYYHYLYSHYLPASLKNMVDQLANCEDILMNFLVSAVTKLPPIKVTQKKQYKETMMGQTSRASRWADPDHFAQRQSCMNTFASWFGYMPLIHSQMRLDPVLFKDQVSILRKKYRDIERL
T2 sequence (Q93063 47-718 partner): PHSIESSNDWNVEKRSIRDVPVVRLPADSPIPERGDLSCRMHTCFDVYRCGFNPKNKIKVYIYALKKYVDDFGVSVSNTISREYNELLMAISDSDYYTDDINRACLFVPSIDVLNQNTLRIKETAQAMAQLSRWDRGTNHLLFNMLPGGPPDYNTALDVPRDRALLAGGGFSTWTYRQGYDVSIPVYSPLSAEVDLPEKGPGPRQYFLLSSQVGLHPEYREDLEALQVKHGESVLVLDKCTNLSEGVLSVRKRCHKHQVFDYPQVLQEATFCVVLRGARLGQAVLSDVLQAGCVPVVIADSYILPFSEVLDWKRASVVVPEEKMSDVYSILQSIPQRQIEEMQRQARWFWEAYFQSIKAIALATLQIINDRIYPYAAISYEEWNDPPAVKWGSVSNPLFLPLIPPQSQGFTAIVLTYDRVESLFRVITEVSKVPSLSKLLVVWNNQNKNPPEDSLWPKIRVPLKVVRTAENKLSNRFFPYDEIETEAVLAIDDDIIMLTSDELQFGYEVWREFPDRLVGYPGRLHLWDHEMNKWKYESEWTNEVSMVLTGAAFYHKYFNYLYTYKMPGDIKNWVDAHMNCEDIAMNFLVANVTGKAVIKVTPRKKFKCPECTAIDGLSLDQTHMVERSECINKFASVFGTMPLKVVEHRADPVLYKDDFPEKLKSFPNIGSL

[3] = molecular target: T2, EXT1-EXT2 complex (EXT1 GlcA-T site); assay: cryo-EM structure, […] A; type: binding; details: EXT1 GlcA-T active site; UDP-GlcA, UDP-GlcNAc and MnCl2 1 mM each added, only UDP seen; pH 7.2
[4] = molecular target: B2; assay: cryo-EM structure; 0.4 mg/mL purified, co-expressed EXT1-EXT2 with 1 mM UDP-GlcNAc, 1 mM UDP-GlcA and 1 mM MnCl2; single-particle analysis, 2.8 Å; details: both partners purified
[5] = molecular target: T3, human EXT1 aa29-aa746 D162N/D164N (human, UniProt Q16394 29-746, D162N | D164N); assay: negative stain EM; purified complex diluted to 0.02 mg/mL in buffer A (50 mM Tris pH 7.8, 150 mM NaCl); mica-carbon flotation; details: both partners purified
T3 construct: exostosin-1 (EXT1), human, residues 29-746, with point mutations in the GlcA-T domain; also called EXT1 D162N/D164N; source: FreeStyle 293-F cells, co-expressed with wild-type EXT2, purified as the wild-type complex; not shown: secreted alkaline phosphatase, N-terminal, cleaved; 8x His, C-terminal, kept
T3 sequence (looked up): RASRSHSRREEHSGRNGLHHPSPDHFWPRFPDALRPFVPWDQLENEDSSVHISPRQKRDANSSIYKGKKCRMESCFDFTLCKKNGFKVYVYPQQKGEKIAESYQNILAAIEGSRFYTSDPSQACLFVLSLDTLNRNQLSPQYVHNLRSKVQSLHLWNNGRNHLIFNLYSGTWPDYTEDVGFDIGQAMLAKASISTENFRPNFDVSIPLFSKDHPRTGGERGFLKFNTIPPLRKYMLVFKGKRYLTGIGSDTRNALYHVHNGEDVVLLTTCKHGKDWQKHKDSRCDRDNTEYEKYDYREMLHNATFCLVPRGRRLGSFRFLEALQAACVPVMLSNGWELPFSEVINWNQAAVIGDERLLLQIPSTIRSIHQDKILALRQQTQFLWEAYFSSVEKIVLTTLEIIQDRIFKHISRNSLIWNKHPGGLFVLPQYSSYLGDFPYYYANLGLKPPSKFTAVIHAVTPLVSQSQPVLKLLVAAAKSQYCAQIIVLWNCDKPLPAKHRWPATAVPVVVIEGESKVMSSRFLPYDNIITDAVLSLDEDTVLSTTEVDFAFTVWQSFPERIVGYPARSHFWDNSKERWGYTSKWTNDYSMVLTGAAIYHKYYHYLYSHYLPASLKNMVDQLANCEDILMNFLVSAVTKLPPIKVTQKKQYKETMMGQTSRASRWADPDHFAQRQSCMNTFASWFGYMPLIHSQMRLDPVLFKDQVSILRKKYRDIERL

[6] = molecular target: B1; assay: cryo-EM structure; 0.4 mg/mL purified, co-expressed EXT1-EXT2 with 1 mM UDP-GlcNAc, 1 mM UDP-GlcA and 1 mM MnCl2; single-particle analysis, 2.8 Å; details: both partners purified

CC(=O)N[C@H]1[C@@H](OP(=O)(O)OP(=O)(O)OC[C@H]2O[C@@H](n3ccc(=O)[nH]c3=O)[C@H](O)[C@@H]2O)O[C@H](CO)[C@@H](O)[C@@H]1O [UDP-GlcNAc]
FACE glycosyl transfer assay [1]: the transfer of a GlcNAc residue onto dp8 led to a slower migration rate

O=C(O)[C@H]1O[C@H](OP(=O)(O)OP(=O)(O)OC[C@H]2O[C@@H](n3ccc(=O)[nH]c3=O)[C@H](O)[C@@H]2O)[C@H](O)[C@@H](O)[C@@H]1O [UDP-GlcA]
FACE glycosyl transfer assay [2]: the addition of a GlcA moiety onto dp9 enhanced the migration rate

O=c1ccn([C@@H]2O[C@H](COP(=O)(O)OP(=O)(O)O)[C@@H](O)[C@H]2O)c(=O)[nH]1 [UDP]
cryo-EM structure, 2.8 A [3]: we found an additional EM density that fits a UDP ligand

B1
stoichiometry N [4]: 1

B2
binding result [5]: binds
binding result [6]: binds

From publication PMC9675754, “Structure of the human heparan sulfate polymerase complex EXT1-EXT2” (Nature Communications, 2022)
